The values that follow come from patent publication US20120035183A1, “Cancer Treatment Method” (priority 2008, published 2012).

Usually IC50 stands for the midpoint of a concentration-inhibition curve.

Experiment [1] has as its system JIMT-1 breast tumor cell line. Put plainly: CellTiter-Glo cell growth inhibition assay, JIMT-1. The experiment is classed as cell-based. The conditions noted are these: for IC50: Homo sapiens, JIMT-1, 72 h, JIMT1, breast, basal, HER2+, 3 days. As for the experimental part: (§1) Breast tumor cell lines, BT-474, SK-Br-3, MDA-MB-453, MDA-MB-231 and T47D and head and neck squamous cell carcinoma line, SCC15 were purchased from the American Type Culture Collection.
(§2) BT-474, SK-Br-3, JimT-1, MDA-MB-453, MDA-MB-231 and T47D and SCC15 were cultured in a humidified incubator at 37° C. in 95% air, 5% CO2 in the RPMI 1640 containing 10% fetal bovine serum (FBS) media.
(§3) Cell growth inhibition was determined via CellTiter-Glo cell viability assays. Cells were seeded in a 96-well tissue culture plate (NUNC 136102) with the following plating densities in their respective media at 1000 or 2000 cells/well dependent on cell growth rate. […] The cells were incubated in the presence of the compounds for 3 days. ATP levels were determined by adding Cell Titer Glo® (Promega), incubating for 20 minutes then a luminescent signal was read on the SpectraMax M5 plate with a 0.5 sec integration time. Cell growth was calculated relative to vehicle (DMSO) treated control wells. […] When the CI value was between 0.9 and 1.10, the combination of the two agents was deemed additive. Combination Index values less than 0.9 were considered indicative of synergy. Combination Index values>1.10 indicated antagonism.

Experiment [2] relates to MDA-MB-231 breast tumor cell line. The experiment can be described thus: CellTiter-Glo cell growth inhibition assay, MDA-MB-231. The class given is cell-based. As to conditions: Homo sapiens, 72 h, post EMT, HER normal, 3 days. The protocol: as §1, §2, §3
In general terms: ATP-based viability assays read luminescence as a measure of living cells.

The test system of experiment [3] is BT-474 breast tumor cell line. Put plainly: CellTiter-Glo cell growth inhibition assay, BT-474. The class given is cell-based. The conditions noted are these: for IC50: Homo sapiens, BT-474, 72 h, BT474, breast, luminal, HER2+, 3 days. The protocol:
as §1, §2, §3

Experiment [4] relates to T47D breast tumor cell line. The experiment can be described thus: CellTiter-Glo cell growth inhibition assay, T47D. The experiment is classed as cell-based. The conditions noted are these: Homo sapiens, 72 h, luminal, HER normal, 3 days. The protocol: as §1, §2, §3
Experiment [5] has as its system MDA-MB-453 breast tumor cell line. Put plainly: CellTiter-Glo cell growth inhibition assay, MDA-MB-453. The experiment is classed as cell-based. As to conditions: Homo sapiens, 72 h, luminal, HER2+, 3 days. The protocol:
as §1, §2, §3

Experiment [6] relates to LL1-BT-474-J4 (J4) breast cell clone. The experiment can be described thus: CellTiter-Glo cell growth inhibition assay, LL1-BT-474-J4. The experiment is classed as cell-based. The conditions noted are these: for IC50: 72 h; for sensitivity of the cell line to the agent (in words): LL1-BT-474-J4.
Experiment [7] deals with SCC15 head and neck squamous cell carcinoma line. Put plainly: cells. The conditions noted are these: Homo sapiens, SCC-15, 72 h, read-out: IC50 (cell growth inhibition). As for the experimental part:
as §1, §2, §3

For experiment [8], the system named is SK-BR-3 breast tumor cell line. The experiment can be described thus: CellTiter-Glo cell growth inhibition assay, SK-BR-3. The experiment is classed as cell-based. As to conditions: Homo sapiens, 72 h, luminal, HER2+, 3 days. The protocol: as §1, §2, §3
For experiment [9], the system named is HN5C2 head and neck tumor cell line. The experiment can be described thus: CellTiter-Glo cell growth inhibition assay, HN5C2. The class given is cell-based.
For a further experiment, the system named is EGFR and erbB2 kinases. As to conditions: Rusnak et al., 2001b, Xia et al., 2002; cited from earlier work.

Take `Cc1nc(Nc2ncc(C(=O)Nc3c(C)cccc3Cl)s2)cc(N2CCN(CCO)CC2)n1` [Dasatinib, N-(2-chloro-6-methylphenyl)-2-[[6-[4-(2-hydroxyethyl)-1-piperazinyl]-2-methyl-4-pyrimidinyl]amino]-5-thiazolecarboxamide,monohydrate]: the 50% inhibitory concentration (IC50) in experiment [1] was 0.4 µM; in experiment [2], 0.23 µM; in [3] it was 10.1 µM; in [4], 8.96 µM; in [5], over 10 µM; in experiment [6] it was over 10 µM. In addition, the IC50 in experiment [7] was 0.06 µM; in [8] it was 6.64 µM.
In the case of `CS(=O)(=O)CCNCc1ccc(-c2ccc3ncnc(Nc4ccc(OCc5cccc(F)c5)c(Cl)c4)c3c2)o1` [Lapatinib, N-{3-chloro-4-[(3-fluorobenzyl)oxy]phenyl}-6-[5-({[2-(methanesulphonyl)ethyl]amino}methyl)-2-furyl]-4-quinazolinamine], the IC50 in experiment [1] was 14.7 µM; in experiment [9] (72 h), 9.78 µM; in experiment [2], over 10 µM; in experiment [3], 0.09 µM; in experiment [4], over 10 µM; in [5], 4.79 µM. Further, the half-maximal inhibitory concentration (IC50) came to 10.9 µM in experiment [6] and 0.22 µM in experiment [8]. Besides, the “sensitivity of the cell line to the agent (in words)” value (from here on “sensitivity of the cell line”) in experiment [1] (JIMT-1) was “resistant”; in experiment [9] (HN5C2), “resistant”; in experiment [3] (BT-474) it was “highly sensitive”; in experiment [6] it was “resistant”. For the same compound, in the experiment with EGFR and erbB2 kinases, the “kinase inhibition in human xenograft studies” value was “dose-dependent kinase inhibition”.
For `COc1cc2ncnc(Nc3ccc(F)c(Cl)c3)c2cc1OCCCN1CCOCC1` [gefitinb], the “sensitivity of the cell line” value in [6] is “resistant”.
In the case of `CC(=O)O[C@H]1C(=O)[C@@]2(C)[C@H]([C@H](OC(=O)c3ccccc3)[C@]3(O)C[C@H](OC(=O)[C@H](O)[C@@H](NC(=O)c4ccccc4)c4ccccc4)C(C)=C1C3(C)C)[C@]1(OC(C)=O)CO[C@@H]1C[C@@H]2O` [taxol], the “sensitivity of the cell line” value in experiment [6] is listed as “retains sensitivity”.
